Results as given in patent US11234982B2, “Methods for treating ocular surface pain” (NOVARTIS AG, priority 2019, dated 2022).

Test system: cornea
Experiment: Esthesiometry assessment (Part 3): corneal sensitivity, anesthetic effect
Format: in vivo, human
Conditions: for Anesthetic effect on the cornea (esthesiometry): single eye drop: tetracaine 0.5%, diclofenac 0.1%, compound I 2.5%
Excerpt: Part 3 was an esthesiometry assessment to evaluate the anesthetic properties of compound I. Part 3 of the study had four arms, with compound I, vehicle, tetracaine (0.5% ophthalmic solution, used as a positive control) and diclofenac sodium (0.1% ophthalmic solution, used as the active NSAID comparator). Ocular anesthetic was selected because of its established anesthetic effect; however it is not the standard of care due to its negative effect on wound healing. NSAID is the current standard of care for corneal pain after PRK with minimal anesthetic but significant pain control properties. Vehicle eye drops were used as a negative control to enable better determination of the potential anesthetic effect. Twelve healthy subjects, who met the eligibility criteria, were randomized to receive a single eye drop of 4 study treatments, each during 1 of 4 different study days (Days 1, 4, 7 and 10). Each subject was randomized to receive the study treatment according to one of the following four sequences: • Sequence 1: Anesthetic, NSAID, compound I 2.5%, Vehicle • Sequence 2: NSAID, Vehicle, Anesthetic, compound I 2.5% • Sequence 3: Vehicle, compound I 2.5%, NSAID, Anesthetic • Sequence 4: compound I 2.5%, Anesthetic, Vehicle, NSAID
Inclusion Criteria: • Written informed consent was obtained before any assessment was performed. • Healthy male and female subjects aged 18 to 50 years (inclusive), and in good health as determined by past medical history, physical examination, vital signs, ECG, and laboratory tests at Screening. • At Screening, and Baseline, vital signs (systolic and diastolic blood pressure (BP) and pulse rate) were assessed in the sitting position after the subject had rested for at least 3 minutes and again after 3 minutes in the standing position. […] BMI=Body weight (kg)/[Height (m)]^2 • Subjects who were able to communicate well with the Investigator, to understand and comply with the requirements of the study. • For Part 3, subjects Baseline levels of eye sensitivity were to be in the range of 50 to 60 mm (inclusive) as measured by the Cochet-Bonnet esthesiometer.
The first-in-human study further evaluated potential anesthetic effect of topical ocular 2.5% compound I by esthesiometry testing, i.e. measurement of the filament length (cm) when the threshold of cornea touch is perceived.

SMILES | Anesthetic effect on the cornea (esthesiometry) | Corneal sensitivity, least squares means, Test vs Ref: vs Diclofenac 0.1% (Tetracaine 0.5% (N=12) vs Diclofenac 0.1% (N=12) at 2.5, 10 and 20 minutes post-dose) | Corneal sensitivity, least squares means, Test vs Ref: vs Vehicle (Tetracaine 0.5% (N=12) vs Vehicle (N=12) at 2.5, 10 and 20 minutes post-dose)
O=C(O)Cc1ccccc1Nc1c(Cl)cccc1Cl [diclofenac, diclofenac sodium, reference compound] | no anesthetic effect |  | 
CCCCNc1ccc(C(=O)OCCN(C)C)cc1 [tetracaine, reference compound] | had an anesthetic effect | statistical and clinical significance were observed | statistical and clinical significance were observed
